Results on 17 molecules are retold here after patent publication US9963480B2, “Nucleoside phosphoramidate compound and use thereof” (priority 2013, dated 2018).

In the first experiment the test system is HCV 1b replicon. Kind of experiment: Antiviral activity assay in HCV replicon system (Huh7 1b cells, luciferase reporter). The note with it: Hepatitis C virus, Huh-7, 72 h. It counts as cell-based. From the text:
The cell line Huh7 1b, which was provided by WuXi AppTec Co., Ltd. in Shanghai, contained an HCV 1b replicon with a stable Luciferase (Luc) reporter. It was constructed by cloning HCV nonstructural protein gene, neo (G418 resistance) and luciferase reporter gene into the pBR vector through gene recombination technology. Then the vector carrying the HCV replicon was transfected into Huh7 cells, and the transfected Huh7 cells were screened by G418 resistance. The HCV replicon was stably replicated, and the related protein and luciferase were stably expressed in Huh7 cells. The cells model was used for in-vitro screen of anti-HCV compounds. The anti-HCV activity of the compounds was measured by detecting the level of luciferase expression. See Lohmann V, et al. 1999. Replication of subgenomic hepatitis C virus RNAs in a hepatoma cell line. Science. 285(5424):110-113.
The control drug used in this experimental example was the compound of Example 25 in WO 2008/121634 (PCT/US2008/058183), i.e. (S)-2-{[(2R,3R,4R,5R)-5-(2,4-dioxo-3,4-dihydro-2H-pyrimidin-1-yl)-4-fluoro-3-hydr oxy-4-methyl-tetrahydro-furan-2-ylmethoxy]-phenoxy-phosphorylamino}-propanoic acid isopropyl ester. This compound was prepared according to the method described in J. Org. chem, 2011, 76, 8311-8319, and identified by H-NMR and mass spectrometry.
• 2.1 compound preparation: adding each of the compounds listed in Table 2 to 96-well plates using a POD™ 810 Automation Platform (LabCyte Corporation, USA), with 10 μM of each of the compounds as a starting concentration and in duplicate; serially diluting each of the compounds in 3-fold fashion and formulating 10 concentrations, with the final concentration of DMSO being 0.5%; • 2.2 cells preparation: seeding the Huh71b cells into 96-well plates respectively with a volume of 125 μl and 8×10^3 cells/well, and incubating in a 37° C., 5% CO2 incubator for 72 h; • 2.3 detection of cell activity: adding 30 μl per cell of the CellTiter-Fluor™ Reagent, incubating in a 37° C., 5% CO2 incubator for 1 h, measuring the fluorescence signal values with a fluorometer, and using the obtained data for calculation of cytotoxicities of the compounds; • 2.4 Bright-Glo detection: adding 100 μl per well of the Bright-Glo™ Luciferase Substrate, using a chemiluminescence detection system EnVision™ (PerkinElmer, USA) to detect the fluorescence signal values within 5 minutes, and using the obtained data for calculation of potencies of the compounds. • 2.5 data processing: converting the obtained data to a percentage of cell viability (Viability %) using the following formula:
[formula] • CPD: fluorescence signal value of the well added with the compound • ZPE (Zero percent effect): fluorescence signal value of the control well with zero percent effect. • Processing the raw data to calculate a percentage of inhibition (Inhibition %) using the following formula:
[formula] • CPD: fluorescence signal value of the well added with the compound; • HPE (Hundred percent effect): fluorescence signal value of the control well with hundred percent effect; • ZPE (Zero percent effect): fluorescence signal value of the control well with zero percent effect.
The inhibition percentage was processed by the GraphPad Prism software to obtain the corresponding curves and EC50 values.
Consider `CC(C)OC(=O)[C@H](C)NP(=O)(OC[C@H]1O[C@@H](n2ccc(=O)[nH]c2=O)[C@](C)(F)[C@@H]1O)Oc1ccc2[nH]ccc2c1` (stereo partly drawn) [Example 20, (2S)-2-(((1H-indol-5-yloxy)(((2R,3R,4R,5R)-5-(2,4-dioxo-3,4-dihydropyrimidin-1(2H)-yl)-4-fluoro-3-hydroxy-4-methyltetrahydrofuran-2-yl)methoxy)phosphoryl)amino)propanoic Acid Isopropyl Ester], for which the EC50 was 3870 nM.

Staying with this experiment, now noted: Hepatitis C virus, Huh-7; Huh7 1b cells with HCV 1b replicon, Bright-Glo luciferase, 72 h; read-out: EC50.
Consider `CC(C)OC(=O)[C@H](C)NP(=O)(OC[C@H]1O[C@@H](n2ccc(=O)[nH]c2=O)[C@](C)(F)[C@@H]1O)Oc1ccc(-c2ccc(Cl)cc2)cc1` (stereo partly drawn) [Example 27, (2S)-2-((((4′-chloro-[1,1′-biphenyl]-4-yl)oxy)(((2R,3R,4R,5R)-5-(2,4-dioxo-3,4-dihydropyrimidin-1(2H)-yl)-4-fluoro-3-hydroxy-4-methyltetrahydrofuran-2-yl)methoxy)phosphoryl)amino)propanoic Acid Isopropyl Ester], for which the EC50 was 98 nM.

`Cc1cc2c(F)c(O[P@](=O)(N[C@@H](C)C(=O)OC(C)C)OC[C@H]3O[C@@H](n4ccc(=O)[nH]c4=O)[C@](C)(F)[C@@H]3O)ccc2n1C` [Example 33, (2S)-2-(((S)-((4-fluoro-1,2-dimethyl-1H-indol-5-yl)oxy)(((2R,3R,4R,5R)-5-(2,4-dioxo-3,4-dihydropyrimidin-1(2H)-yl)-4-fluoro-3-hydroxy-4-methyltetrahydrofuran-2-yl)methoxy)phosphoryl)amino)propanoic Acid Isopropyl Ester]: the EC50 is 33 nM. Same read-out and setting: with `Cc1cc(-c2ccc(OP(=O)(N[C@@H](C)C(=O)OC(C)C)OC[C@H]3O[C@@H](n4ccc(=O)[nH]c4=O)[C@](C)(F)[C@@H]3O)cc2)ccc1F` (stereo partly drawn) [Example 41, (2S)-2-((((4′-fluoro-3′-methyl-[1,1′-biphenyl]-4-yl)oxy)(((2R,3R,4R,5R)-5-(2,4-dioxo-3,4-dihydropyrimidin-1(2H)-yl)-4-fluoro-3-hydroxy-4-methyltetrahydrofuran-2-yl)methoxy)phosphoryl)amino)propanoic Acid Isopropyl Ester] the figure was 50 nM. For `COC(=O)CNP(=O)(OC[C@H]1O[C@@H](n2ccc(=O)[nH]c2=O)[C@](C)(F)[C@@H]1O)Oc1cccc2c1CCCC2` (stereo partly drawn) [Example 14, (2S)-2-(((5,6,7,8-tetrahydronaphthalen-1-yloxy)(((2R,3R,4R,5R)-5-(2,4-dioxo-3,4-dihydropyrimidin-1(2H)-yl)-4-fluoro-3-hydroxy-4-methyltetrahydrofuran-2-yl)methoxy)phosphoryl)amino)acetic Acid Methyl Ester], the half-maximal effective concentration (EC50) was found to be 223 nM. On the same count and under the same terms, with `Cc1cc2c(F)c(O[P@@](=O)(N[C@@H](C)C(=O)OC(C)C)OC[C@H]3O[C@@H](n4ccc(=O)[nH]c4=O)[C@](C)(F)[C@@H]3O)ccc2n1C` [Example 43, (2S)-2-(((R)-((4-fluoro-1,2-dimethyl-1H-indol-5-yl)oxy)(((2R,3R,4R,5R)-5-(2,4-dioxo-3,4-dihydropyrimidin-1(2H)-yl)-4-fluoro-3-hydroxy-4-methyltetrahydrofuran-2-yl)methoxy)phosphoryl)amino)propanoic Acid Isopropyl Ester] the figure was 69 nM; with `CC(C)OC(=O)[C@H](C)NP(=O)(OC[C@H]1O[C@@H](n2ccc(=O)[nH]c2=O)[C@](C)(F)[C@@H]1O)Oc1ccc2oc(-c3ccccc3)cc(=O)c2c1` (some centres unmarked) [Example 23], 4490 nM.

With `COc1cc(/C=C/c2ccc(OP(=O)(N[C@@H](C)C(=O)OC(C)C)OC[C@H]3O[C@@H](n4ccc(=O)[nH]c4=O)[C@](C)(F)[C@@H]3O)cc2)cc(OC)c1` (stereo in doubt) [Example 8, (2S)-2-((((E)-4-(3,5-dimethoxyphenylethenyl)phen-1-yloxy)(((2R,3R,4R,5R)-5-(2,4-dioxo-3,4-dihydropyrimidin-1(2H)-yl)-4-fluoro-3-hydroxy-4-methyltetrahydrofuran-2-yl)methoxy)phosphoryl)amino)propanoic Acid Isopropyl Ester], the half-maximal effective concentration (EC50) is 411 nM.

`CC(C)OC(=O)[C@H](C)NP(=O)(OC[C@H]1O[C@@H](n2ccc(=O)[nH]c2=O)[C@](C)(F)[C@@H]1O)Oc1ccc(-c2cccc(F)c2)cc1` (stereo partly drawn) [Example 31, (2S)-2-((((3′-fluoro-[1,1′-biphenyl]-4-yl)oxy)(((2R,3R,4R,5R)-5-(2,4-dioxo-3,4-dihydropyrimidin-1(2H)-yl)-4-fluoro-3-hydroxy-4-methyltetrahydrofuran-2-yl)methoxy)phosphoryl)amino)propanoic Acid Isopropyl Ester]: the EC50 came to 102 nM.

As for `C[C@H](NP(=O)(OC[C@H]1O[C@@H](n2ccc(=O)[nH]c2=O)[C@](C)(F)[C@@H]1O)Oc1cccc2c1CCCC2)C(=O)OC(C)(C)C` (stereo partly drawn) [Example 15, (2S)-2-(((5,6,7,8-tetrahydronaphthalen-1-yloxy)(((2R,3R,4R,5R)-5-(2,4-dioxo-3,4-dihydropyrimidin-1(2H)-yl)-4-fluoro-3-hydroxy-4-methyltetrahydrofuran-2-yl)methoxy)phosphoryl)amino)propanoic Acid t-butyl Ester], the EC50 was above 3330 nM. For the molecule `CC(C)OC(=O)[C@H](C)NP(=O)(OC[C@H]1O[C@@H](n2ccc(=O)[nH]c2=O)[C@](C)(F)[C@@H]1O)Oc1ccccc1-c1ccccc1` (stereo partly drawn) [Example 3, (2S)-2-((([1,1′-biphenyl]-2-yloxy)(((2R,3R,4R,5R)-5-(2,4-dioxo-3,4-dihydropyrimidin-1(2H)-yl)-4-fluoro-3-hydroxy-4-methyltetrahydrofuran-2-yl)methoxy)phosphoryl)amino)propanoic Acid Isopropyl Ester], the EC50 is 123 nM. The same measure, in the same setting: with `CC(C)OC(=O)[C@H](C)NP(=O)(OC[C@H]1O[C@@H](n2ccc(=O)[nH]c2=O)[C@](C)(F)[C@@H]1O)Oc1ccc(C#Cc2ccccc2)cc1` (some centres unmarked) [Example 11] the figure was 189 nM. Still for that read-out and setting: the value for `Cc1ccc(-c2ccc(OP(=O)(N[C@@H](C)C(=O)OC(C)C)OC[C@H]3O[C@@H](n4ccc(=O)[nH]c4=O)[C@](C)(F)[C@@H]3O)cc2)cc1` (stereo partly drawn) [Example 42, (2S)-2-((((4′-methyl-[1,1′-biphenyl]-4-yl)oxy)(((2R,3R,4R,5R)-5-(2,4-dioxo-3,4-dihydropyrimidin-1(2H)-yl)-4-fluoro-3-hydroxy-4-methyltetrahydrofuran-2-yl)methoxy)phosphoryl)amino)propanoic Acid Isopropyl Ester] was 126 nM; that for `COC(=O)Cc1coc2c(OP(=O)(N[C@@H](C)C(=O)OC(C)C)OC[C@H]3O[C@@H](n4ccc(=O)[nH]c4=O)[C@](C)(F)[C@@H]3O)cccc12` (stereo partly drawn) [Example 22, (2S)-2-(((3-methoxycarbonylmethyl-benzofuran-7-yloxy)(((2R,3R,4R,5R)-5-(2,4-dioxo-3,4-dihydropyrimidin-1(2H)-yl)-4-fluoro-3-hydroxy-4-methyltetrahydrofuran-2-yl)methoxy)phosphoryl)amino)propanoic Acid Isopropyl Ester] was 314 nM; that for `CC(C)OC(=O)[C@H](C)NP(=O)(OC[C@H]1O[C@@H](n2ccc(=O)[nH]c2=O)[C@](C)(F)[C@@H]1O)Oc1ccc(-c2cncs2)cc1` (some centres unmarked) [Example 17] was 258 nM. Same read-out and setting: with `Cc1cc2c(F)c(OP(=O)(N[C@@H](C)C(=O)OC(C)C)OC[C@H]3O[C@@H](n4ccc(=O)[nH]c4=O)[C@](C)(F)[C@@H]3O)ccc2[nH]1` (stereo partly drawn) [Example 21, (2S)-2-(((4-fluoro-2-methyl-1H-indol-5-yloxy)(((2R,3R,4R,5R)-5-(2,4-dioxo-3,4-dihydropyrimidin-1(2H)-yl)-4-fluoro-3-hydroxy-4-methyltetrahydrofuran-2-yl)methoxy)phosphoryl)amino)propanoic Acid Isopropyl Ester] the figure was 258 nM; with `CC(C)OC(=O)[C@H](C)NP(=O)(OC[C@H]1O[C@@H](n2ccc(=O)[nH]c2=O)[C@](C)(F)[C@@H]1O)Oc1ccc(/C=C/c2ccc(F)cc2)cc1` (stereo partly drawn) [Example 19, (2S)-2-(((4-((E)-4-fluorophenylethenylphenyl)-1-yloxy)(((2R,3R,4R,5R)-5-(2,4-dioxo-3,4-dihydropyrimidin-1(2H)-yl)-4-fluoro-3-hydroxy-4-methyltetrahydrofuran-2-yl)methoxy)phosphoryl)amino)propanoic Acid Isopropyl Ester], 303 nM.
